We go through 16 compounds from patent publication US12421211B2, “Heterocyclic compounds” (Hoffmann-La Roche Inc., priority 2021, dated 2025).

Structures can show the parent of a compound that is named as a salt. Where two headings read alike, the source gives them in different places.

The test system of the test is Acinetobacter baumannii ATCC17961. Kind of test: Antimicrobial susceptibility testing: 90% growth inhibitory concentration (IC90) determination. Format: cell-based. To be noted: read-out: ATCC 17961 IC90. Put shortly:
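A. baumannii ATCC17961 at ~5×10^5 CFU/ml in Iso-Sensitest broth exposed to 10-point twofold dilutions (e.g. 50–0.097 μM final), 35±2° C. OD600 read every 20 minutes over 16h; IC50 and IC90 derived from inhibition during logarithmic growth.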

[1] abbreviates: Acinetobacter baumannii, ATCC17961, 16 h, 90% growth inhibitory concentration, Acinetobacter baumannii ATCC17961, Iso-Sensitest broth, OD 600 nm over 16 h.
[2] abbreviates: Acinetobacter baumannii, ATCC17961, 16 h.
Where [3] appears, read: 90% growth inhibitory concentration, Acinetobacter baumannii ATCC17961, Iso-Sensitest broth, OD 600 nm over 16 h.

For orientation: IC90 means the point of the concentration-response curve where the effect stands at 90%. Turning to `Cc1nn(CCOCCN)c(C)c1-c1ccc(-c2cnc(C(=O)Nc3ccc(C(=O)N4CCN(C(=O)[C@@H]5C[C@@H](O)C[N+]5(C)C)CC4)c(Cl)c3)n2C)c(F)c1F` [Example K1, 5-[4-[1-[2-(2-aminoethoxy)ethyl]-3,5-dimethyl-pyrazol-4-yl]-2,3-difluoro-phenyl]-N-[3-chloro-4-[4-[(2S,4R)-4-hydroxy-1,1-dimethyl-pyrrolidin-1-ium-2-carbonyl]piperazine-1-carbonyl]phenyl]-1-methyl-imidazole-2-carboxamide; 2,2,2-trifluoroacetate], the 90% effect concentration (IC90) under setting [1] was found to be 600 nM.
The same measure, in the same setting: the value for `Cc1nn(CCOC(F)F)c(C)c1-c1ccc(-c2cnc(C(=O)Nc3ccc(C(=O)N4CCN(C(=O)C5C[C@@H](O)C[N+]5(C)C)CC4)c(Cl)c3)n2C)c(F)c1F` (stereo partly drawn) [Example K2, N-[3-chloro-4-[4-[(4R)-4-hydroxy-1,1-dimethyl-pyrrolidin-1-ium-2-carbonyl]piperazine-1-carbonyl]phenyl]-5-[4-[1-2-(difluoromethoxy)ethyl]-3,5-dimethyl-pyrazol-4-yl]-2,3-difluoro-phenyl]-1-methyl-imidazole-2-carboxamide; formate] was 360 nM.
Still for that read-out and setting: with `Cc1nn(CC2CC2(F)F)c(C)c1-c1ccc(-c2cnc(C(=O)Nc3ccc(C(=O)N4CCN(C(=O)C5C[C@@H](O)C[N+]5(C)C)CC4)c(Cl)c3)n2C)c(F)c1F` (stereo partly drawn) [Example K3, N-[3-chloro-4-[4-[(4R)-4-hydroxy-1,1-dimethyl-pyrrolidin-1-ium-2-carbonyl]piperazine-1-carbonyl]phenyl]-5-[4-[1-2,2-difluorocyclopropyl)methyl]-3,5-dimethyl-pyrazol-4-yl]-2,3-difluoro-phenyl]-1-methyl-imidazole-2-carboxamide; formate] the figure was 300 nM; with `Cc1nn(CC(=O)Nc2ccc(F)nn2)cc1-c1ccc(-c2cnc(C(=O)Nc3ccc(C(=O)N4CCN(C(=O)C5CC[N+](C)(C)CC5)CC4)c(Cl)c3)n2C)cc1` [Example L1, N-[3-chloro-4-[4-(1,1-dimethylpiperidin-1-ium-4-carbonyl)piperazine-1-carbonyl]phenyl]-5-[4-[1-[2-[(6-fluoropyridazin-3-yl)amino]-2-oxo-ethyl]-3-methyl-pyrazol-4-yl]phenyl]-1-methyl-imidazole-2-carboxamide; formate], 206 nM.
Turning to `Cc1nn(CC(=O)Nc2ccc(F)nn2)cc1-c1ccc(-c2cnc(C(=O)Nc3ccc(C(=O)N4CCN(C(=O)C5CC[N+](C)(C)CC5)CC4)c(Cl)c3)n2C)cc1F` [Example L2, N-[3-chloro-4-[4-(1,1-dimethylpiperidin-1-ium-4-carbonyl)piperazine-1-carbonyl]phenyl]-5-[3-fluoro-4-[1-[2-[(6-fluoropyridazin-3-yl)amino]-2-oxo-ethyl]-3-methyl-pyrazol-4-yl]phenyl]-1-methyl-imidazole-2-carboxamide; formate], under setting [2], the 90% effect concentration (IC90) was determined as 168 nM.
On the same count and under the same terms, the value for `Cc1ccc(NC(=O)Cn2cc(-c3ccc(-c4cnc(C(=O)Nc5ccc(C(=O)N6CCN(C(=O)C7CC[N+](C)(C)CC7)CC6)c(Cl)c5)n4C)c(F)c3F)c(C)n2)nn1` [Example L3, N-[3-chloro-4-[4-(1,1-dimethylpiperidin-1-ium-4-carbonyl)piperazine-1-carbonyl]phenyl]-5-[2,3-difluoro-4-[3-methyl-1-[2-[(6-methylpyridazin-3-yl)amino]-2-oxo-ethyl]pyrazol-4-yl]phenyl]-1-methyl-imidazole-2-carboxamide; formate] was 264 nM; that for `COc1ccc(NC(=O)Cn2cc(-c3ccc(-c4cnc(C(=O)Nc5ccc(C(=O)N6CCN(C(=O)C7CC[N+](C)(C)CC7)CC6)c(Cl)c5)n4C)c(F)c3F)c(C)n2)nn1` [Example L4, N-[3-chloro-4-[4-(1,1-dimethylpiperidin-1-ium-4-carbonyl)piperazine-1-carbonyl]phenyl]-5-[2,3-difluoro-4-[1-[2-[(6-methoxypyridazin-3-yl)amino]-2-oxo-ethyl]-3-methyl-pyrazol-4-yl]phenyl]-1-methyl-imidazole-2-carboxamide; formate] was 106 nM.
On the same count and under the same terms, the value for `Cc1nn(CC(=O)Nc2ccc(N3CCOCC3)nn2)cc1-c1ccc(-c2cnc(C(=O)Nc3ccc(C(=O)N4CCN(C(=O)C5CC[N+](C)(C)CC5)CC4)c(Cl)c3)n2C)c(F)c1F` [Example L5, N-[3-chloro-4-[4-(1,1-dimethylpiperidin-1-ium-4-carbonyl)piperazine-1-carbonyl]phenyl]-5-[2,3-difluoro-4-[3-methyl-1-[2-[(6-morpholinopyridazin-3-yl)amino]-2-oxo-ethyl]pyrazol-4-yl]phenyl]-1-methyl-imidazole-2-carboxamide; formate] was 374 nM.
Consider `Cc1nn(CC(=O)Nc2ccc(F)nn2)cc1-c1ccc(-c2cnc(C(=O)Nc3ccc(C(=O)N4CCN(C(=O)C5CC[N+](CC(=O)O)(CC6CNC6)CC5)CC4)c(Cl)c3)n2C)c(F)c1F` (stereo not drawn) [Example L6, cis 2-[1-(azetidin-3-ylmethyl)-4-[4-[2-chloro-4-[[5-[2,3-difluoro-4-[1-[2-[(6-fluoropyridazin-3-yl)aminol-2-oxo-ethyl]-3-methyl-pyrazol-4-yl]phenyl]-methyl-imidazole-2-carbonyl]amino]benzoyl]piperazine-1-carbonyl]piperidin-1-ium-1-yl]acetic acid; formate], for which the 90% effect concentration (IC90) under setting [3] stood at 197 nM.
Take `Cc1ccc(NC(=O)NCCn2cc(-c3ccc(-c4cnc(C(=O)Nc5ccc(C(=O)N6CCN(C(=O)C7CC[N+](C)(C)CC7)CC6)c(Cl)c5)n4C)c(F)c3F)c(C)n2)cn1` [Example M1, N-[3-chloro-4-[4-(1,1-dimethylpiperidin-1-ium-4-carbonyl)piperazine-1-carbonyl]phenyl]-5-[2,3-difluoro-4-[3-methyl-1-[2-[(6-methyl-3-pyridyl)carbamoylamino]ethyl]pyrazol-4-yl]phenyl]-1-methyl-imidazole-2-carboxamide formate]: the IC90 under setting [1] amounted to 152 nM.
Same read-out and setting: with `Cc1c(-c2cnc(C(=O)Nc3ccc(C(=O)N4CCN(C(=O)CCC[N+](C)(CC(=O)O)CC5CNC5)CC4)c(Cl)c3)n2C)ccc(-c2cnn(CCOC(F)F)c2C)c1F` (stereo not shown) [Example N1, azetidin-3-ylmethyl-(carboxymethyl)-[4-[4-[2-chloro-4-[[5-[4-[1-[2-(difluoromethoxy)ethyl]-5-methyl-pyrazol-4-yl]-3-fluoro-2-methyl-phenyl]-1-methyl-imidazole-2-carbonyl]amino]benzoyl]piperazin-1-yl]-4-oxo-butyl]-methyl-ammonium; formic acid; formate] the figure was 189 nM.
With `Cc1c(-c2cnc(C(=O)Nc3ccc(C(=O)N4CCN(C(=O)C5CC[N+](CC(=O)O)(CC6CNC6)CC5)CC4)c(Cl)c3)n2C)ccc(-c2cnn(CCOC(F)F)c2C)c1F` (stereo not shown) [Example N2, 2-[1-(azetidin-3-ylmethyl)-4-[4-[2-chloro-4-[[5-[4-[1-[2-(difluoromethoxy)ethyl]-5-methyl-pyrazol-4-yl]-3-fluoro-2-methyl-phenyl]-1-methyl-imidazole-2-carbonyl]amino]benzoyl]piperazine-1-carbonyl]piperidin-1-ium-1-yl]acetic acid; formate], the IC90 under setting [2] came out at 183 nM.
On the same count and under the same terms, with `Cc1c(-c2cnc(C(=O)Nc3ccc(C(=O)N4CCN(C(=O)CCC[N+](C)(CCCN)CC(=O)O)CC4)c(Cl)c3)n2C)ccc(-c2cnn(CCOC(F)F)c2C)c1F` (stereo not shown) [Example N3, 3-aminopropyl-(carboxymethyl)-[4-[4-[2-chloro-4-[[5-[4-[1-[2-(difluoromethoxy)ethyl]-5-methyl-pyrazol-4-yl]-3-fluoro-2-methyl-phenyl]-1-methyl-imidazole-2-carbonyl]amino]benzoyl]piperazin-1-yl]-4-oxo-butyl]-methyl-ammonium; formate] the figure was 352 nM.
Turning to `Cc1nn(CCOC(F)F)cc1-c1ccc(-c2cnc(C(=O)Nc3ccc(C(=O)N4CCN(C(=O)C5CC[N+](CC(=O)[O-])(CC6CNC6)CC5)CC4)c(Cl)c3)n2C)c(F)c1F` (stereo not drawn) [Example N4, cis 2-[1-(azetidin-3-ylmethyl)-4-[4-[2-chloro-4-[[5-[4-[1-[2-(difluoromethoxy)ethyl]-3-methyl-pyrazol-4-yl]-2,3-difluoro-phenyl]-1-methyl-imidazole-2-carbonyl]amino]benzoyl]piperazine-1-carbonyl]piperidin-1-ium-1-yl]acetate], under setting [3], the IC90 worked out at 108 nM.
`COCCn1ncc(-c2ccc(-c3cnc(C(=O)Nc4ccc(C(=O)N5CCC(N(C)C(=O)C6CC[N+](CC(=O)O)(CC7CNC7)CC6)CC5)c(Cl)c4)n3C)c(F)c2F)c1C` (stereo not shown) [Example O1, 2-[1-(azetidin-3-ylmethyl)-4-[[1-[2-chloro-4-[[5-[2,3-difluoro-4-[1-(2-methoxyethyl)-5-methyl-pyrazol-4-yl]phenyl]-1-methyl-imidazole-2-carbonyl]amino]benzoyl]-4-piperidyl]-methyl-carbamoyl]piperidin-1-ium-1-yl]acetic acid formate]: under setting [2], the IC90 was found to be 354 nM.
In the case of `COCCn1ncc(-c2ccc(-c3cnc(C(=O)Nc4ccc(C(=O)N[C@H]5[C@@H]6CN(C(=O)C7CC[N+](CC(=O)O)(CC8CNC8)CC7)C[C@@H]65)c(Cl)c4)n3C)c(F)c2F)c1C` (stereo partly drawn) [Example O2, 2-[1-(azetidin-3-ylmethyl)-4-[(1S,5R) 6-[[2-chloro-4-[[5-[2,3-difluoro-4-[1-(2-methoxyethyl)-5-methyl-pyrazol-4-yl]phenyl]-1-methyl-imidazole-2-carbonyl]amino]benzoyl]amino]-3-azabicyclo[3.1.0]hexane-3-carbonyl]piperidin-1-ium-1-yl]acetic acid formate], the IC90 under setting [2] was determined as 362 nM.
